Assay [1] has as its system VCap, C4-2, 22Rv1 and LnCap cells. Nature of the assay: Cell proliferation assay, summary statements over several cell lines. In kind it is cell-based. Particulars: for antiproliferative activity on VCap, C4-2, 22Rv1 and LnCap cells (in words): 227Th-labelled compounds bearing the HOPO chelator Example A; for antiproliferative activity on VCap and C4-2 cells (in words): 227Th-labelled compounds, in comparison to 227Th-labelled examples 1-C monomer, dimer, trimer and tetramer. How it is done: Inhibition of cell proliferation of Thorium-227 labeled PMSA SMOL ligands was tested different prostate cancer cell lines, namely 22Rv1, VCaP, C4-2 (all from ATCC, Manassas, Va., USA) and LNCaP (DMSZ, Braunschweig). Cells were seeded using the following conditions in 384 well plates (Corning) in 30 μl of growth media at 4000 cells/well for VCaP cells and 1000 cells/well for 22Rv1, C4-2 and LNCaP cells.
Cells were cultivated an incubator at 37° C. and 5% C02 over night. […] In sister plates cell viability at treatment start (d=0) was determined using CellTiter-Glo® assay (CTG, Promega, Madison, Wis., USA), by adding 30 μl per well CTG solution, incubation for 10 min and reading of Luminescence in a PheraStarFSX instrument (BMG Labtech). After a 5-day exposure in the presenced of test compounds, cell viability of treated or untreated control cells was determined again using CellTiter-Glo® assay (Promega, Madison, Wis., USA). […] The DRC software is a Biobook Spreadsheet that was developed by Bayer AG and Bayer Business Services on the IDBS E-Workbook Suite platform (IDBS: ID Business Solutions Ltd., Guildford, UK).

Assay [2] addresses T1, PSMA-expressing LNCaP cells (Homo sapiens, UniProt Q04609).
T1 construct: PSMA-expressing LNCaP cells; endogenous in cells; host or cells: LNCaP
Description: Binding competition assay against 3H-PSMA-617 on LNCaP cells. The method in brief: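 Compounds added to LNCaP cells in growth medium, 2 h at 37 °C, 5% CO2. After two ice-cold PBS washes, cells lysed in 0.3 M NaOH and bound radioactivity measured by liquid scintillation counting.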

Assay [3] concerns LNCaP human prostate cancer cells. Description: LNCaP xenograft efficacy study (T/C tumor area). Format: in vivo, SCID mice. In short, it runs like this:
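SCID mice with testosterone pellet bearing s.c. flank LNCaP xenografts (5×10^6 cells in Matrigel) were treated i.v. with a defined radioactive dose once tumors reached 35-50 mm^2 (n=10/group). Tumor area (caliper, longest diameter × perpendicular) measured 2-3× weekly; T/C ratio calculated from tumor areas when vehicle group closed.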

Another assay concerns C4-2 cells. Description: Cell proliferation assay (CellTiter-Glo, 5-day exposure), C4-2. Format: cell-based. Conditions: C4-2, 1000 cells/well, Th-227 labelled at 375 kBq/nmol, mean of 1 to 6 experiments. The method in brief:
(§1)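 Thorium-227-labelled PSMA small-molecule ligands were tested on prostate cancer lines seeded at 4000 cells/well (VCaP) or 1000 cells/well (22Rv1, C4-2, LNCaP) and incubated overnight at 37 °C, 5% CO2. Viability was read by CellTiter-Glo luminescence at treatment start (sister plates) and after 5-day compound exposure.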
A general note: In ATP-based viability assays light output follows the ATP content of the culture.

Assay [4] concerns the target T1, PSMA-expressing LNCaP cells. Description: Internalization assay (membrane bound and internalized Th-227). In kind it is cell-based. Particulars: 10 nM radiolabeled compound, Th-227 at 375 kBq/nmol, triplicates. The method, then: For internalization assays 24 well plates (#3526, Corning) were coated with 200 μl Poly-L-Lysine (0.1 mg/ml, #3438-100-01, Fa. Cultrex) per well for 2 h at 37° C. […] Cells were incubated at 37° C. and 5% CO2 over night. On the following day 400 μl of the media were removed and a total of 200 μl growth medium added supplemented with PSMA-SMOLs labeled with Th-227 at 375 kBq/nmol in triplicates. Radiochemical purity of the labeling was analyzed by instant thin layer chromatography and found to be above 70% for all compounds used. The final concentration of radiolabeled SMOLs was in the test wells was 10 nM. Cells were incubated for 30 min or 2 h. After the incubation time supernatants were taken off and cells washed with PBS. Thereafter cells were washed twice with 0.2 ml 50 mM Glycine-HCl buffer (#55097, Sigma Aldrich) and once with PBS and the washing solutions combined in counting vials (#TK75-018, Fa. Corning) and subjected to gamma counting (1470 Wizard automatic gamma counter, Wallac). The resulting counts were attributed to membrane bound radioactivity. Cells were then lysed with 500 μl 0.3N NaOH (#181691.1211, Fa. PanReac AppliChem ITW Reagents) followed by another wash with 500 μl PBS. The NaOH lysate as well as the final wash were combined in vials and subjected to gamma counting as described above. Measured radioactivity was attributed to internalized fraction. Results were calculated as fmol of Th-227 per/10^cells in the membrane bound and internalized fractions from triplicate values.

In another assay the test system is VCaP cells. Nature of the assay: Cell proliferation assay (CellTiter-Glo, 5-day exposure), VCaP. In kind it is cell-based. Conditions: 4000 cells/well, Th-227 labelled at 375 kBq/nmol, mean of 1 to 6 experiments. The method in brief:
as §1

In the next assay the test system is 22Rv1 cells. Description: Cell proliferation assay (CellTiter-Glo, 5-day exposure), 22Rv1. Particulars: 22Rv1, 1000 cells/well, Th-227 labelled at 375 kBq/nmol, mean of 1 to 6 experiments. Format: cell-based. In short, it runs like this:
as §1

A further assay concerns LNCaP cells. Description: Cell proliferation assay (CellTiter-Glo, 5-day exposure), LNCaP. In kind it is cell-based, human. Conditions: LNCaP, 1000 cells/well; Th-227 labelled at 375 kBq/nmol; 5-day exposure; mean of 1 to 6 experiments. In short, it runs like this: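 Seed VCaP at 4000 and other lines at 1000 cells/well; culture overnight, 37 °C, 5% CO2; add Th-227 conjugate dilutions (375 kBq/nmol) in triplicate; measure CellTiter-Glo viability on day 0 and day 5.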

Setting [5] is: LNCaP cells, 10 nM 3H-PSMA-617, competing non-radiolabeled compound 10 nM, 2 h at 37° C., triplicates.
Setting [6] is: LNCaP cells, 10 nM 3H-PSMA-617, competing non-radiolabeled compound 100 nM, 2 h at 37° C., triplicates.

T1 sequence (Q04609 whole entry): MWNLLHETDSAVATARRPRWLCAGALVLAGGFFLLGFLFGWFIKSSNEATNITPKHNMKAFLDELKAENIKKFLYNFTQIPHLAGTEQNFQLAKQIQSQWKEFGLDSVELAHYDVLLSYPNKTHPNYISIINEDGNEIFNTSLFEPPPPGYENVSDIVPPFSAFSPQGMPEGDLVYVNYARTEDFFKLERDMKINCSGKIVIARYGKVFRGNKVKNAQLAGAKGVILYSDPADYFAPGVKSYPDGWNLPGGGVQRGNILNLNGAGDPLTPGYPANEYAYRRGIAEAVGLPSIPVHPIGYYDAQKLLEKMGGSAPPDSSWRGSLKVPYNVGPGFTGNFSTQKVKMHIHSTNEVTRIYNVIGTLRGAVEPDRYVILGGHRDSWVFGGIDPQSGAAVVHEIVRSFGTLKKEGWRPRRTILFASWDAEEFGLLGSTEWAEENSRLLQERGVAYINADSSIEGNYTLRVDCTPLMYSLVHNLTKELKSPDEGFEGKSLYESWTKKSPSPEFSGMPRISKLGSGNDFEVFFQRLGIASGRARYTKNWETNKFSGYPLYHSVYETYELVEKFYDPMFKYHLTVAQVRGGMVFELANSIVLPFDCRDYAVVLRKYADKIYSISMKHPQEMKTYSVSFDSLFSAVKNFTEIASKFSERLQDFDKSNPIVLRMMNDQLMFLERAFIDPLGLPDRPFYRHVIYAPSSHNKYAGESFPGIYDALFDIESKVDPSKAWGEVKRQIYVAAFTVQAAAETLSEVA

On to `Cc1cc2c(c(=O)n1CC(=O)O)[O][227Th]13[O]c4c(cc(C)n(CC(=O)O)c4=O)C(=O)NCCN(CCCN(CCNC(=O)c4cc(C)n(CC(=O)O)c(=O)c4[O]1)CCNC(=O)c1cc(C)n(CC(=O)NCc4ccc(C(=O)N[C@@H](Cc5ccc6ccccc6n5)C(=O)NCCCC[C@H](NC(=O)N[C@@H](CCC(=O)O)C(=O)O)C(=O)O)nc4)c(=O)c1[O]3)CCNC2=O` [34-C monomer], for which, in assay [1], the “antiproliferative activity on VCap, C4-2, 22Rv1 and LnCap cells (in words)” value is reported as “high antiproliferative activity”; the “antiproliferative activity on VCap and C4-2 cells (in words)” value is “improved antiproliferative activity”.

For the compound `CNc1cc(CC(NC(=O)C2CCC(CNC(=O)Cn3c(C)cc(C(=O)NCCN(CCCN(CCNC(=O)c4cc(C)n(CC(=O)O)c(=O)c4O)CCNC(=O)c4cc(C)n(CC(=O)NCC5CCC(C(=O)NC(Cc6cc(NC)c7ccccc7c6)C(=O)NCCCCC(NC(=O)NC(CCC(=O)O)C(=O)O)C(=O)O)CC5)c(=O)c4O)CCNC(=O)c4cc(C)n(CC(=O)O)c(=O)c4O)c(O)c3=O)CC2)C(=O)NCCCCC(NC(=O)NC(CCC(=O)O)C(=O)O)C(=O)O)cc2ccccc12` (centres unmarked) [37-C dimer], the “antiproliferative activity on VCap, C4-2, 22Rv1 and LnCap cells (in words)” value in assay [1] is “high antiproliferative activity”. Also, the “% remaining 3H-PSMA-617 @ 10 nM (mean)” value in assay [2] (setting [5]) worked out at 64%. Further, in assay [2] (setting [6]), the “% remaining 3H-PSMA-617 @ 100 nM (mean)” value was found to be 13%.

Turning to `Cc1cc(C(=O)NCCN(CCCN(CCNC(=O)c2cc(C)n(CC(=O)NC[C@H]3CC[C@H](C(=O)N[C@@H](Cc4ccc5ccccc5c4)C(=O)NCCCC[C@H](NC(=O)N[C@@H](CCC(=O)O)C(=O)O)C(=O)O)CC3)c(=O)c2O)CCNC(=O)c2cc(C)n(CC(=O)NC[C@H]3CC[C@H](C(=O)N[C@@H](Cc4ccc5ccccc5c4)C(=O)NCCCC[C@H](NC(=O)N[C@@H](CCC(=O)O)C(=O)O)C(=O)O)CC3)c(=O)c2O)CCNC(=O)c2cc(C)n(CC(=O)NC[C@H]3CC[C@H](C(=O)N[C@@H](Cc4ccc5ccccc5c4)C(=O)NCCCC[C@H](NC(=O)N[C@@H](CCC(=O)O)C(=O)O)C(=O)O)CC3)c(=O)c2O)c(O)c(=O)n1CC(=O)O` [1-C trimer], the “antiproliferative activity on VCap, C4-2, 22Rv1 and LnCap cells (in words)” value in assay [1] is reported as “high antiproliferative activity”. Also, in assay [2] (setting [5]), the remaining activity at 0.01 µM is 45%. The compound also gave a remaining activity at 0.1 µM in assay [2] (setting [6]) of 9%. Also, the “competition against 3H-PSMA-617 on PSMA-expressing LNCaP cells (in words)” value in assay [2] (comparison between examples) is listed as “improved competition”.

As for `Cc1cc(C(=O)NCCN(CCCN(CCNC(=O)c2cc(C)n(CC(=O)O)c(=O)c2O)CCNC(=O)c2cc(C)n(CC(=O)NC[C@H]3CC[C@H](C(=O)N[C@@H](Cc4ccc5ccccc5n4)C(=O)NCCCC[C@H](NC(=O)N[C@@H](CCC(=O)O)C(=O)O)C(=O)O)CC3)c(=O)c2O)CCNC(=O)c2cc(C)n(CC(=O)O)c(=O)c2O)c(O)c(=O)n1CC(=O)O` [Example 17-C monomer], the “antiproliferative activity on VCap, C4-2, 22Rv1 and LnCap cells (in words)” value in assay [1] is recorded as “high antiproliferative activity”. For the same compound, the remaining activity at 0.01 µM in assay [2] (setting [5]) was 42%. In assay [2] (setting [6]), this compound came in with a remaining activity at 0.1 µM of 8%.

As to `Cc1cc(C(=O)NCCN(CCCN(CCNC(=O)c2cc(C)n(CC(=O)NCc3ccc(C(=O)N[C@@H](Cc4ccc5ccccc5n4)C(=O)NCCCC[C@H](NC(=O)N[C@@H](CCC(=O)O)C(=O)O)C(=O)O)nc3)c(=O)c2O)CCNC(=O)c2cc(C)n(CC(=O)NCc3ccc(C(=O)N[C@@H](Cc4ccc5ccccc5n4)C(=O)NCCCC[C@H](NC(=O)N[C@@H](CCC(=O)O)C(=O)O)C(=O)O)nc3)c(=O)c2O)CCNC(=O)c2cc(C)n(CC(=O)NCc3ccc(C(=O)N[C@@H](Cc4ccc5ccccc5n4)C(=O)NCCCC[C@H](NC(=O)N[C@@H](CCC(=O)O)C(=O)O)C(=O)O)nc3)c(=O)c2O)c(O)c(=O)n1CC(=O)NCc1ccc(C(=O)N[C@@H](Cc2ccc3ccccc3n2)C(=O)NCCCC[C@H](NC(=O)N[C@@H](CCC(=O)O)C(=O)O)C(=O)O)nc1` [34-C tetramer], in assay [1], the “antiproliferative activity on VCap, C4-2, 22Rv1 and LnCap cells (in words)” value is given as “high antiproliferative activity”; the “antiproliferative activity on VCap and C4-2 cells (in words)” value is given as “improved antiproliferative activity”. Further, in assay [2] (setting [5]), the remaining activity at 0.01 µM was found to be 73%. Moreover, the remaining activity at 0.1 µM in assay [2] (setting [6]) was determined as 14%.

In the case of `Cc1cc2c(c(=O)n1CC(=O)O)[O][227Th]13[O]c4c(cc(C)n(CC(=O)O)c4=O)C(=O)NCCN(CCCN(CCNC2=O)CCNC(=O)c2cc(C)n(CC(=O)NCc4ccc(C(=O)N[C@@H](Cc5ccc6ccccc6n5)C(=O)NCCCC[C@H](NC(=O)N[C@@H](CCC(=O)O)C(=O)O)C(=O)O)nc4)c(=O)c2[O]1)CCNC(=O)c1cc(C)n(CC(=O)NCc2ccc(C(=O)N[C@@H](Cc4ccc5ccccc5n4)C(=O)NCCCC[C@H](NC(=O)N[C@@H](CCC(=O)O)C(=O)O)C(=O)O)nc2)c(=O)c1[O]3` [34-C dimer-227Th], in assay [3] (Example IV, day 36 after start of therapy, once 1 MBq/kg), the T/Carea is 0.46. This compound showed a T/Carea in assay [3] (Example V, day 27 after start of therapy, once 750 kBq/kg) of 0.38. For the same compound, the “Proliferation assay on cancer cell lines by TTCs Default Pivot #3 IC50 [kBq/mL] C4-2 1000cells 375kBq/nmol (mean)” value with C4-2 cells came to 0.46 kBq/mL. Moreover, in assay [4] (30 min incubation), the “Internalized in LNCaP fmol/10^6 cells 30 min” value is on record as 100 fmol/10^6 cells and the “Membrane bound in LNCaP fmol/10^6 cells 30 min” value was 79 fmol/10^6 cells. For the same compound, in assay [4] (2 h incubation), the “Internalized in LNCaP fmol/10^6 cells 2 h” value came to 299 fmol/10^6 cells and the “Membrane bound in LNCaP fmol/10^6 cells 2 h” value is on record as 185 fmol/10^6 cells. Further, in the assay on VCaP cells, the “Proliferation assay on cancer cell lines by TTCs Default Pivot #3 IC50 [kBq/mL] VCap 4000cells 375kBq/nmol (mean)” value was 1.25 kBq/mL. Moreover, the “Proliferation assay on cancer cell lines by TTCs Default Pivot #3 IC50 [kBq/mL] 22Rv1 1000cells 375kBq/nmol (mean)” value in the assay with 22Rv1 cells came to 1.36 kBq/mL. The “Proliferation assay on cancer cell lines by TTCs Default Pivot #3 IC50 [kBq/mL] LnCap 1000cells 375kBq/nmol (mean)” value with LNCaP cells came to 0.02 kBq/mL.

A word on the remaining activity: it is what remains of the control signal, in per cent. Lower therefore signals little activity left.

For the origin of these results see patent US20230072421A1, “TARGETED RADIOPHARMACEUTICALS FOR THE DIAGNOSIS AND TREATMENT OF PROSTATE CANCER” (Bayer AS, priority 2019, published 2023).
